From US6479435B1, “Diaryl ethers and processes for their preparation and herbicidal and desiccant compositions containing them” (ISK Americas Incorporated, priority 1997, dated 2002)

Tests used:
Format in all cases: in vivo
[1] = tested on: sicklepod (Cassia obtusifolia, CASOB); experiment: Post-emerge greenhouse herbicide test, phytotoxicity rating; conditions: Senna obtusifolia, post-emergence, 336 h, 14 days after application, scale 0-100; for pest or weed control at 63 g/ha: rate 63 g ai/ha; for pest or weed control at 500 g/ha: rate 500 g ai/ha
Procedure, shortened: (§1)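 Scores use a 0 (no damage) to 100 (complete kill) scale, taken 14 days after a foliar spray. Acetone solutions with 0.25% v/v non-ionic surfactant were applied by track sprayer at 187 l/ha and 63-1000 g ai/ha to bottom-watered 2-3 leaf plants.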

[2] = tested on: velvetleaf (Abutilon theophrasti, ABUTH); experiment: as above; conditions: Abutilon theophrasti, post-emergence, 336 h, 14 days after application, scale 0-100; for pest or weed control at 63 g/ha: rate 63 g ai/ha; for pest or weed control at 500 g/ha: rate 500 g ai/ha
Procedure, shortened: as §1

[3] = tested on: large crabgrass (Digitaria sanguinalis, DIGSA); experiment: as above; conditions: Digitaria sanguinalis, post-emergence, 336 h, 14 days after application, scale 0-100; for pest or weed control at 63 g/ha: rate 63 g ai/ha; for pest or weed control at 500 g/ha: rate 500 g ai/ha
Procedure, shortened: as §1

[4] = tested on: green foxtail (Setaria viridis, SETVI); experiment: as above; conditions: Setaria viridis, post-emergence, 336 h, 14 days after application, scale 0-100; for pest or weed control at 63 g/ha: rate 63 g ai/ha; for pest or weed control at 500 g/ha: rate 500 g ai/ha
Procedure, shortened: as §1

[5] = tested on: ivyleaf morningglory (Ipomoea hederacea, IPOHE); experiment: as above; conditions: Ipomoea, post-emergence, 336 h, 14 days after application, scale 0-100; for pest or weed control at 63 g/ha: rate 63 g ai/ha; for pest or weed control at 500 g/ha: rate 500 g ai/ha
Procedure, shortened: as §1

[6] = tested on: Johnsongrass (Sorghum halepense, SORHA); experiment: as above; conditions: Sorghum halepense, post-emergence, 336 h, 14 days after application, scale 0-100; for pest or weed control at 63 g/ha: rate 63 g ai/ha; for pest or weed control at 500 g/ha: rate 500 g ai/ha
Procedure, shortened: as §1

[7] = tested on: redroot pigweed (Amaranthus retroflexus, AMARE); experiment: as above; conditions: Amaranthus retroflexus, post-emergence, 336 h, 14 days after application, scale 0-100; for pest or weed control at 63 g/ha: rate 63 g ai/ha; for pest or weed control at 500 g/ha: rate 500 g ai/ha
Procedure, shortened: as §1

[8] = tested on: lambsquarters (Chenopodium album, CHEAL); experiment: as above; conditions: Chenopodium album, post-emergence, 336 h, 14 days after application, scale 0-100; for pest or weed control at 63 g/ha: rate 63 g ai/ha; for pest or weed control at 500 g/ha: rate 500 g ai/ha
Procedure, shortened: as §1

[9] = tested on: barnyardgrass (Echinochloa crusgalli, ECHCG); experiment: as above; conditions: Echinochloa crus-galli, post-emergence, 336 h, 14 days after application, scale 0-100; for pest or weed control at 63 g/ha: rate 63 g ai/ha; for pest or weed control at 500 g/ha: rate 500 g ai/ha
Procedure, shortened: as §1

[10] = tested on: velvetleaf (Abutilon theophrasti, ABUTH); experiment: Pre-emerge greenhouse herbicide test, phytotoxicity rating; conditions: Abutilon theophrasti, pre-emergence, 336 h, 14 days after application, rating scale 0-100; for pest or weed control at 125 g/ha: Rate 125 g al/ha; for pest or weed control at 500 g/ha: Rate 500 g al/ha
Procedure, shortened: (§2)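 Visual 0–100 injury rating (100 = all plants dead) taken 14 days after treatment. Rates of 125–1000 g ai/ha in acetone, 187 l/ha, were sprayed onto soil one day post-sowing; pots were surface-watered to incorporate, then bottom-watered.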

[11] = tested on: green foxtail (Setaria viridis, SETVI); experiment: as above; conditions: Setaria viridis, pre-emergence, 336 h, 14 days after application, rating scale 0-100; for pest or weed control at 125 g/ha: Rate 125 g al/ha; for pest or weed control at 500 g/ha: Rate 500 g al/ha
Procedure, shortened: as §2

[12] = tested on: ivyleaf morningglory (Ipomoea hederacea, IPOHE); experiment: as above; conditions: Ipomoea, pre-emergence, 336 h, 14 days after application, rating scale 0-100; for pest or weed control at 125 g/ha: Rate 125 g al/ha; for pest or weed control at 500 g/ha: Rate 500 g al/ha
Procedure, shortened: as §2

[13] = tested on: Johnsongrass (Sorghum halepense, SORHA); experiment: as above; conditions: Sorghum halepense, pre-emergence, 336 h, 14 days after application, rating scale 0-100; for pest or weed control at 125 g/ha: Rate 125 g al/ha; for pest or weed control at 500 g/ha: Rate 500 g al/ha
Procedure, shortened: as §2

[14] = tested on: redroot pigweed (Amaranthus retroflexus, AMARE); experiment: as above; conditions: Amaranthus retroflexus, pre-emergence, 336 h, 14 days after application, rating scale 0-100; for pest or weed control at 125 g/ha: Rate 125 g al/ha; for pest or weed control at 500 g/ha: Rate 500 g al/ha
Procedure, shortened: as §2

[15] = tested on: lambsquarters (Chenopodium album, CHEAL); experiment: as above; conditions: Chenopodium album, pre-emergence, 336 h, 14 days after application, rating scale 0-100; for pest or weed control at 125 g/ha: Rate 125 g al/ha; for pest or weed control at 500 g/ha: Rate 500 g al/ha
Procedure, shortened: as §2

Row | SMILES | pest or weed control at 63 g/ha [1] [%] | pest or weed control at 500 g/ha [1] [%] | pest or weed control at 63 g/ha [2] [%] | pest or weed control at 500 g/ha [2] [%] | pest or weed control at 63 g/ha [3] [%] | pest or weed control at 500 g/ha [3] [%] | pest or weed control at 63 g/ha [4] [%] | pest or weed control at 500 g/ha [4] [%] | pest or weed control at 63 g/ha [5] [%] | pest or weed control at 500 g/ha [5] [%] | pest or weed control at 63 g/ha [6] [%] | pest or weed control at 500 g/ha [6] [%] | pest or weed control at 63 g/ha [7] [%] | pest or weed control at 500 g/ha [7] [%] | pest or weed control at 63 g/ha [8] [%] | pest or weed control at 500 g/ha [8] [%] | pest or weed control at 63 g/ha [9] [%] | pest or weed control at 500 g/ha [9] [%] | pest or weed control at 125 g/ha [10] [%] | pest or weed control at 500 g/ha [10] [%] | also measured
1 | Nn1c(C(F)(F)F)cc(=O)n(-c2cc(Oc3ccccc3)c(Cl)cc2F)c1=O [Compound 9-26, 1-Amino-3-[4-chloro-2-fluoro-5-phenoxyphenyl]-6-trifluoromethyl-1,2,3,4-tetrahydropyrimidine-2,4-dione] | 100 | 100 | 100 | 100 | 80 | 50 | 100 | 100 | 100 | 100 | 90 | 100 | 100 | 100 | 100 | 100 | 80 | 100 | 100 | 100 | pest or weed control at 125 g/ha [11]: 100%; pest or weed control at 500 g/ha [11]: 100%; pest or weed control at 125 g/ha [12]: 100%; pest or weed control at 500 g/ha [12]: 60%; pest or weed control at 125 g/ha [13]: 90%; pest or weed control at 500 g/ha [13]: 100%; pest or weed control at 125 g/ha [14]: 100%; pest or weed control at 500 g/ha [14]: 100%; pest or weed control at 125 g/ha [15]: 100%; pest or weed control at 500 g/ha [15]: 100%
2 | Nn1c(C(F)(F)F)cc(=S)n(-c2cc(Oc3ccc(Cl)cn3)c(Cl)cc2F)c1=O [Compound 9-28, 1-amino-3-[4-chloro-2-fluoro-5-(5-chloro-2-pyridyloxy)phenyl]-6-trifluoromethyl-1,2,3,4tetrahydro-2-oxo-4-thioxopyrimidine] | 10 | 50 | 90 | 100 | 0 | 0 | 25 | 50 | 95 | 100 | 0 | 30 | 90 | 100 | 80 | 100 | 0 | 10 | 100 | 100 | pest or weed control at 125 g/ha [11]: 100%; pest or weed control at 500 g/ha [11]: 100%; pest or weed control at 125 g/ha [12]: 40%; pest or weed control at 500 g/ha [12]: 70%; pest or weed control at 125 g/ha [13]: 20%; pest or weed control at 500 g/ha [13]: 80%; pest or weed control at 125 g/ha [14]: 100%; pest or weed control at 500 g/ha [14]: 100%; pest or weed control at 125 g/ha [15]: 100%; pest or weed control at 500 g/ha [15]: 100%
